Activity calls are given as the source filed them.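 How the source made its calls: active means compounds lowering heat-shock reporter fluorescence with mean IC50 at or below 15 µM, flagged as SKN-1 screen artifacts; inactive means the rest.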
These molecules were tested on C. elegans VP596 hsp-16.2 GFP/RFP after heat shock (assay: hsp-16.2 heat-shock reporter inhibition in nematodes, SAR follow-up, counter-screen for SKN-1 inhibitor project, whole organism, C. elegans VP596, GFP/RFP ratio, round 2 (AID 652273)).

Row | SMILES | IC50
1 | CCOc1cc(CN(C)C2CCCC2)cc(Cl)c1OCc1ccc(Cl)cc1 | > 64 µM (inactive)
2 | CCOc1cc(CNC2CCCC2)cc(Cl)c1OCc1ccc(C#N)cc1 | > 64 µM (inactive)
3 | CCOc1cc(CNC2CC2)cc(Cl)c1OCc1ccc(Cl)cc1 | > 64 µM (inactive)
4 | COc1cc(CNC2CCCC2)cc(F)c1OCc1ccc(Cl)cc1 | > 64 µM (inactive)
5 | CCOc1cc(CNC)cc(Cl)c1OCc1ccc(Cl)cc1 | > 64 µM (inactive)
6 | CCOc1cc(CN2CCCCC2)cc(Cl)c1OCc1ccc(F)cc1 | > 64 µM (inactive)
7 | CCOc1cc(CNC2CC2)cc(Cl)c1OCc1ccc(Br)cc1 | > 64 µM (inactive)
8 | CCOc1cc(CN2CCOCC2)cc(Cl)c1OCc1ccc(Cl)cc1 | > 64 µM (inactive)
9 | COc1cc(CNC2CCCC2)cc(Cl)c1OCc1ccc(Cl)cc1 | > 64 µM (inactive)
10 | CCOc1cc(CNC2CC2)cc(Cl)c1OCc1ccc(Cl)cc1F | > 64 µM (inactive)
11 | COc1cc(CNC2CCCC2)cc(Br)c1OCc1ccc(Cl)cc1 | > 64 µM (inactive)
12 | CCOc1cc(CN2CCCCC2)cc(Cl)c1OCc1ccc(Cl)cc1 | > 64 µM (inactive)
13 | CCOc1cc(CNC2CCCC2)cc(Cl)c1OCc1ccc(Cl)cc1F | > 64 µM (inactive)
14 | CCOc1cc(CNC2CCCC2)cc(Cl)c1OCc1ccc(Br)cc1 | > 64 µM (inactive)
15 | C#CCNCc1cc(Cl)c(OCc2ccc(Cl)cc2)c(OCC)c1 | > 64 µM (inactive)
16 | CCOc1cc(CN2CCN(C)CC2)cc(Cl)c1OCc1ccc(F)cc1 | > 64 µM (inactive)
17 | CCOc1cc(CN2CCN(C)CC2)cc(Cl)c1OCc1ccc(Cl)cc1 | > 64 µM (inactive)
18 | C=CCNCc1cc(Cl)c(OCc2ccc(Cl)cc2)c(OCC)c1 | > 64 µM (inactive)
19 | Clc1ccc(COc2c(Cl)cc(CNC3CCCC3)cc2Cl)cc1 | > 64 µM (inactive)
20 | CCOc1cc(CN(C(C)=O)C2CCCC2)cc(Cl)c1OCc1ccc(Cl)cc1 | > 64 µM (inactive)
21 | Cc1cc(CNC2CCCC2)cc(C)c1OCc1ccc(Cl)cc1 | > 64 µM (inactive)
22 | CCOc1cc(CN2CCCC2)cc(Cl)c1OCc1ccc(F)cc1 | > 64 µM (inactive)
23 | CCOc1cc(CNCC2CC2)cc(Cl)c1OCc1ccc(Cl)cc1 | > 64 µM (inactive)
24 | CCOc1cc(CN2CCOCC2)cc(Cl)c1OCc1ccc(F)cc1 | > 64 µM (inactive)
25 | CCOc1cc(CN2CCCC2)cc(Cl)c1OCc1ccc(Cl)cc1 | > 64 µM (inactive)
26 | CCCNCc1cc(Cl)c(OCc2ccc(Cl)cc2)c(OCC)c1 | > 64 µM (inactive)
27 | CCOc1cc(CNC2CC2)cc(Cl)c1OCc1ccc(C#N)cc1 | > 64 µM (inactive)
